Test results published in US20070232563A1, “Method for Enhancing Biological Activity and/or Expanding Suitable Region for Biological Activity of Living Body Contacting with Aqueous Environment” (Kabushiki Kaisha Hayashibara Seibutsu Kagaku Kenky, priority 2004, published 2007).

Tests used:
[1] = test system: short-necked clam (Ruditapes philippinarum); assay: Biological activity of short-necked clam (aqueduct extension score) in aqueous mineral solutions; format: in vivo; conditions: saccharide 1 w/v %, total of 18 clams, 16 h
Experimental: Suitable region for biological activity of short-necked clam (Ruditapes philippinarum), as a fish or shellfish living in seawater, was examined by adding various saccharides to mineral aqueous solutions with various concentrations. In detail, solar salt (85% by weight of sodium chloride and 15% by weight of magnesium) as minerals was dissolved in running water kept in a container for two days to give final concentrations described in the following Table 1. Saccharide (any one of D-glucose, maltose, sucrose, maltitol, α,α-trehalose, α-maltosyl α,α-trehalose, maltotetraose and cyclic tetrasaccharide) was dissolved in the resulting salt solutions to give a final concentration of 1 w/v %, on a dry solid basis. Each of the resulting solutions was placed in a plastic bat. Eighteen pre-selected active short-necked clam in one group were placed in the bat. The bat was shaded with a black cloth and left at ambient temperature (18° C.) for 16 hours. As a control, an aqueous solar salt solution without any saccharides was prepared. Saccharides except for α-maltosyl α,α-trehalose as a saccharide derivatives thereof and cyclic tetrasaccharide were chosen from commercialized products. α-Maltosyl α,α-trehalose as saccharide derivatives of α,α-trehalose in a powder form with a purity of 98 w/w % or over was prepared by the method disclosed in Experiment 4 in Japanese Patent Kokai No. 143876/1995. Cyclic tetrasaccharide in a crystalline form with a purity of 98 w/w % or over, on a dry solid basis, was prepared by the method disclosed in Example A-7 in International Patent Publication No. WO02/10361. Influence of various saccharides was judged by observing the degree of extending aqueduct of the shellfish; 3 points: its aqueduct is well extended; 2 points: its aqueduct is slightly extended; 1 point: its aqueduct is not extended but its shells are opened; 0 point: its shells are closed. The effect on biological activity was judged by the total point of 18 shellfishes. To investigate the effective concentration range of α,α-trehalose or α-maltosyl α,α-trehalose against a mineral solution with a concentration of 1.5 w/v % or 4.5 w/v %, where α,α-trehalose or α-maltosyl α,α-trehalose was remarkably effective in Experiment 1, the following experiment using α,α-trehalose or α-maltosyl α,α-trehalose at a concentration of 0.01, 0.1, 1, 2, 3 or 4 w/v % was carried out according to the method in Experiment 1. As a control, mineral aqueous solutions with a concentration of 1.5 w/v % or 4.5 w/v % without any of the saccharides were prepared and carried out in the same manner.

[2] = test system: colbicula (Corbicula leana); assay: Biological activity of corbicula (aqueduct extension score) in aqueous mineral solutions; format: in vivo; conditions: saccharide 1 w/v %, total of 18 shellfishes, 16 h
Description: Influence of various saccharides was judged by observing the degree of extending aqueduct of the shellfish; 3 points: its aqueduct is well extended; 2 points: its aqueduct is slightly extended; 1 point: its aqueduct is not extended but its shells are opened; 0 point: its shells are closed. The effect on biological activity was judged by the total point of 18 shellfishes.
Suitable region for biological activity was examined by using colbicula (Corbicula leana) as fishes and shellfishes living in fresh water in the case of enhancing their biological activity by using aqueous mineral solutions containing various saccharides. In detail, solar salt (85% by weight of sodium chloride and 15% by weight of magnesium) as minerals was dissolved in tap water kept in a container for two days to give final concentrations described in the following Table 4. Saccharide (any one of D-glucose, maltose, sucrose, maltitol, α,α-trehalose, α-maltosyl α,α-trehalose, maltotetraose and cyclic tetrasaccharide) was dissolved in the resulting salt solutions to give a final concentration of 1 w/v %, on a dry solid basis. The resulting each solution was placed in a plastic bat. Eighteen pre-selected active shellfishes in one group were placed in the bat. The bat was shaded with a black cloth and left at ambient temperature (18° C.) for 16 hours. As a control, an aqueous solar salt solution without saccharides was prepared. Biological activity of the shellfish was judged by measuring extend their aqueducts macroscopically in the same manner as in Experiment 1.
Effective concentration range of α,α-trehalose or α-maltosyl α,α-trehalose on enhancing biological activity and/or influencing on suitable region for biological activity of colbicula (Corbicula leana) was determined according to the method of Experiment 4 by examining biological activity of the shellfish in the aqueous mineral solution with a mineral concentration of 1.5 w/v %, where α,α-trehalose or α-maltosyl α,α-trehalose was effective in Experiment 4, containing α,α-trehalose or α-maltosyl α,α-trehalose at a concentration of 0.01, 0.1, 1, 2, 3 or 4 w/v %, on a dry solid basis. As a control, a solution containing 1.5 w/v % of mineral without such saccharides was prepared and treated in the same manner.

Compound | Judgment score for biological activity ([1]; mineral 0 w/v %) | Judgment score for biological activity ([1]; mineral 0.5 w/v %) | Judgment score for biological activity ([1]; mineral 1.0 w/v %) | Judgment score for biological activity ([1]; mineral 1.5 w/v %) | Judgment score for biological activity ([1]; mineral 2.0 w/v %) | Judgment score for biological activity ([1]; mineral 2.5 w/v %) | Judgment score for biological activity ([1]; mineral 3.0 w/v %) | Judgment score for biological activity ([1]; mineral 3.5 w/v %) | Judgment score for biological activity ([1]; mineral 4.0 w/v %) | Judgment score for biological activity ([1]; mineral 4.5 w/v %) | Judgment score for biological activity ([1]; mineral 5.0 w/v %) | Judgment score for biological activity ([1]; mineral 5.5 w/v %) | Judgment score for biological activity ([1]; mineral 6.0 w/v %) | Judgment score of biological activity ([2]; mineral concentration 0) | Judgment score of biological activity ([2]; mineral concentration 0.5) | Judgment score of biological activity ([2]; mineral concentration 1.0) | Judgment score of biological activity ([2]; mineral concentration 1.5) | Judgment score of biological activity ([2]; mineral concentration 2.0) | Judgment score of biological activity ([2]; mineral concentration 2.5) | Judgment score of biological activity ([2]; mineral concentration 3.0)
O=C[C@H](O)[C@@H](O)[C@H](O)[C@H](O)CO [D-Glucose, D-glucose] | 7 | 12 | 12 | 14 | 30 | 41 | 48 | 44 | 31 | 24 | 11 | 4 | 0 | 50 | 51 | 25 | 18 | 15 | 5 | 0
OC[C@H]1O[C@@](CO)(O[C@H]2O[C@H](CO)[C@@H](O)[C@H](O)[C@H]2O)[C@@H](O)[C@@H]1O [Sucrose, sucrose] | 7 | 11 | 14 | 16 | 31 | 44 | 48 | 45 | 30 | 21 | 9 | 0 | 0 | 51 | 46 | 21 | 11 | 8 | 7 | 0
